Data as given in US4387105A, “Methods of treating atherosclerosis with dialkylureas and dialkylthioureas” (priority 1982, dated 1983).

Tests used:
[1] = biological target: T1, fatty acyl CoA:cholesterol acyl transferase (ACAT) (Rattus norvegicus, UniProt O70536); experiment: Inhibition of ACAT in rat adrenal microsomal supernatant (14C-oleoyl CoA, cholesteryl ester counted); type: biochemical; parameters: dose or concentration left out as unconfirmed; conditions: vs control without compound
T1 construct: The supernatant, containing the microsomal fraction, served as the source of the cholesterol-esterifying enzyme; from tissue; host or cells: rat adrenals (1000 x g supernatant containing the microsomal fraction)
T1 sequence (O70536 1-545): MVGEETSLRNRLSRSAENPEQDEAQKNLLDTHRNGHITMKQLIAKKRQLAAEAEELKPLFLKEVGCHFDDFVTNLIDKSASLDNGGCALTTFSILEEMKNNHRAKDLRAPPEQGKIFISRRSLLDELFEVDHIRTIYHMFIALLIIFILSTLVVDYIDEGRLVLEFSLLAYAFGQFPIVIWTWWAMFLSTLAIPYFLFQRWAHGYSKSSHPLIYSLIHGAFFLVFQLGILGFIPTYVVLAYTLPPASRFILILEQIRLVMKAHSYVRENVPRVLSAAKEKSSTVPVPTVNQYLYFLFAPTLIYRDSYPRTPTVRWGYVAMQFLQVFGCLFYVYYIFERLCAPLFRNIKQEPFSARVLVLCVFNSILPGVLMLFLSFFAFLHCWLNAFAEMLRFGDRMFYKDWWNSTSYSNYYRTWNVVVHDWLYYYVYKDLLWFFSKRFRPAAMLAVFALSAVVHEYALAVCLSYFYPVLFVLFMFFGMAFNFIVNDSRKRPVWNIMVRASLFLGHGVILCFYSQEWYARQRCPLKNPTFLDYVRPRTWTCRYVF
Description: The compounds of the present invention were assayed for two types of biological activity related to their potential use as antiatherosclerotic agents. Compounds were tested in vitro for the ability to inhibit the enzyme fatty acyl CoA:cholesterol acyl transferase (ACAT) and in vivo for serum hypolipidemic activity as measured by their ability to inhibit lipid absorption in rats. The compounds were tested for their ability to inhibit ACAT according to the following procedure:
Rat adrenals were homogenized in 0.2 M monobasic potassium phosphate buffer, pH 7.4, and centrifuged at 1000 times gravity for 15 minutes at 5° C. The supernatant, containing the microsomal fraction, served as the source of the cholesterol-esterifying enzyme, fatty acyl CoA:cholesterol acyl transferase (ACAT). A mixture comprising 50 parts of adrenal supernatant, 10 parts of albumin (BSA) (50 mg./ml.), 3 parts of test compound (final concentration […].) and 500 parts of buffer was preincubated at 37° C. for 10 minutes. After treatment with 20 parts of oleoyl CoA(^14 C-[…]) the mixture was incubated at 37° C. for 10 minutes. A control mixture, omitting the test compound, was prepared and treated in the same manner. The lipids from the incubation mixture were extracted into an organic solvent and separated by thin-layer chromatography. The cholesteryl ester fraction was counted in a scintillation counter. This procedure is a modification of that described by Hashimoto, et al., Life Scie., 12 (Part II), 1-12 (1973).

cholesterol absorption [2] = experiment: Inhibition of cholesterol absorption in cholesterol/cholic acid fed rats given [4-14C] cholesterol by gavage (fecal 14C sterols); type: in vivo, male Sprague-Dawley rats; parameters: key: Active: A compound is considered active in inhibiting cholesterol absorption if it meets at least the first two criteria; conditions: 0.01% to 0.1% of the diet for 2 weeks; [4-14C] cholesterol plus 2 mg. test compound by gavage after 9 days; feces collected 5 days
Description: Inhibition of cholesterol absorption also was determined by feeding male Sprague-Dawley rats, weighing 150-170 g., a 1% cholesterol:0.5% cholic acid diet for 2 weeks. The diet also contained compounds being tested at doses of between 0.01% and 0.1% of the diet. After the rats had been on the test diet for 9 days each rat is given by gavage a sonicated mixture of [4-^14 C] cholesterol (6μCi), 0.2 ml. triolein, 10 mg. cholic acid, 20 mg. cholesterol and 2 mg. of test compound in 0.8 ml. of 10% non-fat dry milk. Feces were collected for each 24 hour period for the remaining 5 days during which the rats were maintained on the 1% cholesterol:0.5% cholic acid plus test compound diet. Fecal ^14 C-neutral sterols were extracted with petroleum ether from saponified feces by the method of Grundy, S. M., et al., J. Lipid Res., 6, 397 (1965) and counted in a scintillation counter. Acidic sterols (bile acids) were extracted by acidifying the saponified feces and extracting in chloroform:methanol (2:1) and counting the chloroform phase in a scintillation counter. Total extraction of radioactivity (98-100%) from saponified feces is realized by this procedure.
Radioactivity in liver and adrenals were determined by saponification and extraction into petroleum ether and counting by scintillation techniques. Total cholesterol in liver and adrenals was determined by the cholorimetric melthod of Zlatkis, A., et al., J. Lab. Clin. Med., 41, 486 (1953) on saponified-organic solvent extracted tissue prepared by the method of Trinder, P., Analyst, 77, 321 (1952). Serum cholesterol and triglycerides were assayed enzymaticaly by the method of Allain, C. C., et al., Clin. Chem., 20, 470 (1974) on a Centrifichem 400 Analyzer. ^14 C-Cholesterol in serum was determined by direct scintillation counting.
The effect of test compounds on cholesterol absorption was determined by:
1. increase in excreted ^14 C-neutral sterol
2. decrease in excreted ^14 C-acidic sterol
3. decrease in ^14 C-cholesterol or ^14 C-cholesteryl ester in the liver
4. decrease in ^14 C-cholesterol or ^14 C-cholesteryl ester in the serum. […]

cholesterol absorption [3] = conditions: po, 0.03 % of diet, 336 h
Description: Inhibition of cholesterol absorption was determined by feeding male Sprague-Dawley rats, weighing 150-170 g., a 1% cholesterol:0.5% cholic acid diet for 2 weeks. The diet also contained compounds being tested at a dose of 0.03% of the diet. Control rats were fed the same diet without any compound. At the end of the test the rats were sacrificed by decapitation. […] Livers are removed, a 0.4 g sample is taken from the center of the large lobe, and the sample is subjected to saponification using 25% saturated potassium hydroxide in ethanol. The resulting neutral sterols are extracted with petroleum ether and extract analyzed for cholesterol. The effectiveness of the compound in inhibiting cholesterol absorption is measured by the lowering of either serum cholesterol or liver cholesterol relative the values for control rats.

Row | % Inhibition [1] [%] | SMILES | Result (inhibition of cholesterol absorption: increase in excreted 14C-neutral sterol and decrease in excreted 14C-acidic sterol) (cholesterol absorption [2]) | Result (inhibition of cholesterol absorption: lowering of either serum cholesterol or liver cholesterol relative to control rats) (cholesterol absorption [3])
1 | 95.1 | CCCCCCN(CCCCCC)C(=O)Nc1ccc(C)cc1C [1,1-Di-(n-hexyl)-3-(2,4-dimethylphenyl)urea] | Active | Active
2 | 81.1 | CCCCN(CCCC)C(=O)Nc1ccc(C)cc1C [1,1-Di-(n-butyl)-3-(2,4-dimethylphenyl)urea] | Active | Active
3 | 61.8 | CCCCN(CCCC)C(=O)Nc1ccccc1C [1,1-di-(n-butyl)-3-(2-methylphenyl)urea, 1,1-Di-(n-butyl)-3-(2-methylphenyl)urea] | – | Active
4 | 83.5 | CCCCN(CCCC)C(=O)Nc1cc(C)cc(C)c1 [1,1-Di-(n-butyl)-3-(3,5-dimethylphenyl)urea] | – | Active
5 | 90.3 | CCCCCN(CCCCC)C(=O)Nc1ccc(C)cc1C [1,1-Di-(n-pentyl)-3-(2,4-dimethylphenyl)urea] | Active | Active
6 | 88.7 | Cc1ccc(NC(=O)N(CCC(C)C)CCC(C)C)c(C)c1 [1,1-Di-(n-isopentyl)-3-(2,4-dimethylphenyl)urea] | – | Active
7 | 64.0 | CCCCCCCCCCN(CCCCCCCCCC)C(=O)Nc1ccc(C)cc1C [1,1-Di-(n-decyl)-3-(2,4-dimethylphenyl)urea] | – | Active
8 | 90.4 | Cc1ccc(NC(=O)N(CCC(C)CC(C)(C)C)CCC(C)CC(C)(C)C)c(C)c1 (stereo not drawn) [1,1-di-(3,5,5-trimethylhexyl)-3-(2,4-dimethylphenyl)urea] | – | Active

Row | SMILES | % Inhibition [1] [%] | Result (inhibition of cholesterol absorption: increase in excreted 14C-neutral sterol and decrease in excreted 14C-acidic sterol) (cholesterol absorption [2]) | Result (inhibition of cholesterol absorption: lowering of either serum cholesterol or liver cholesterol relative to control rats) (cholesterol absorption [3])
9 | CCCCN(CCCC)C(=O)Nc1cc(Cl)cc(Cl)c1 [1,1-Di-(n-butyl)-3-(3,5-dichlorophenyl)urea] | 79.3 | – | Active
